Measured values published in US11453660B2, “Androgen receptor and glucocorticoid receptor modulators” (ONCOSTELLAE, S.L., priority 2017, dated 2022).

Target: T1, AR-Receptor (Homo sapiens, UniProt P10275)
T1 sequence (P10275 1-920 Q868H): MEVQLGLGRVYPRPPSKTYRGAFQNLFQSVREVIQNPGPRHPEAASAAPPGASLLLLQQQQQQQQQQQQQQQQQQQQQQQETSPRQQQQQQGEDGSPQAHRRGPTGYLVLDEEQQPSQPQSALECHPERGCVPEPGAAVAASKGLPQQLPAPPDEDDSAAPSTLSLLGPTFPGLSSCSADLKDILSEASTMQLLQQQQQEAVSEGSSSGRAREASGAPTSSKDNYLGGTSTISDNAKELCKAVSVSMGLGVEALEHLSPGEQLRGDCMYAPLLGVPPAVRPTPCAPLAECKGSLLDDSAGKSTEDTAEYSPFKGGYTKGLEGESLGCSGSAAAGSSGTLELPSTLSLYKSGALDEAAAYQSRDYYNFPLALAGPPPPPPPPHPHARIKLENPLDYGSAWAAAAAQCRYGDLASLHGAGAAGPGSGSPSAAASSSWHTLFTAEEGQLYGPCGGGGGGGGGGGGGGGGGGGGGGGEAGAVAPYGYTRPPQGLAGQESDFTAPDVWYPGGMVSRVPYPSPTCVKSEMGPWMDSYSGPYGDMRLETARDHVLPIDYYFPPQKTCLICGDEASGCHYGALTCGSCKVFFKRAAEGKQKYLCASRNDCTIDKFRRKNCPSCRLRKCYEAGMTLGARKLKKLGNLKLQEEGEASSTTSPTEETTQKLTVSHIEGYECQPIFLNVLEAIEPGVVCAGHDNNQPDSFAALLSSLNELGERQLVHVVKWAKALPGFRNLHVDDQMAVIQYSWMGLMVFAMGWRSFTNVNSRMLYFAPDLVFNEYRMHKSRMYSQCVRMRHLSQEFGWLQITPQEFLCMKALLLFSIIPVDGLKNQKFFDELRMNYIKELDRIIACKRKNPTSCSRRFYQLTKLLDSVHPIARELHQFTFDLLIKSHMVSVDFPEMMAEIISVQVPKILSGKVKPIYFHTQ
Assay: Functional Assay AR-Receptor (MDA-MB-453 cells, luciferase)
Format: cell-based
Conditions: antagonist effect in the presence of DHT 1 nM, 24 h, luciferase luminescence, read-out: AR antag KB
In short: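 MDA-MB-453 cells, 8000/well, were switched to medium with 0.1% FBS and exposed to compounds for 24 h at 37 °C. Antagonist mode used 1 nM DHT. After lysis and a freeze-thaw cycle, luciferase luminescence was read.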

| SMILES | Kb |
| --- | --- |
| CC(=O)C1=C(C)NC(C)=C(C(=O)OC2CCCCC2)C1c1csc2ncccc12 (centres unmarked) [Example C36, Cyclohexyl 5-acetyl-2,6-dimethyl-4-(thieno[2,3-b]pyridin-3-yl)-1,4-dihydropyridine-3-carboxylate] | ≥ 1000 nM |
| CC(=O)C1=C(C)NC(C)=C(C(=O)OCc2ccccc2)C1c1csc2ncccc12 (centres unmarked) [Example C39, Benzyl 5-acetyl-2,6-dimethyl-4-(thieno[2,3-b]pyridin-3-yl)-1,4-dihydropyridine-3-carboxylate] | ≥ 1000 nM |
| CC(=O)C1=C(C)NC(C)=C(C(=O)OCc2ccccc2)C1c1csc2ccc(F)cc12 (centres unmarked) [Example C41, Benzyl 5-acetyl-4-(5-fluorobenzo[b]thiophen-3-yl)-2,6-dimethyl-1,4-dihydropyridine-3-carboxylate] | 100 to 1000 nM |
| CC(=O)C1=C(C)NC(C)=C(C(=O)OCc2ccccc2)C1c1csc2ccc(Cl)cc12 (centres unmarked) [Example C42, Benzyl 5-acetyl-4-(5-chlorobenzo[b]thiophen-3-yl)-2,6-dimethyl-1,4-dihydropyridine-3-carboxylate] | < 100 nM |
| CC(=O)C1=C(C)NC(C)=C(C(=O)OCC2CCOCC2)C1c1csc2ccc(Cl)cc12 (centres unmarked) [Example C43, (Tetrahydro-2H-pyran-4-yl)methyl 5-acetyl-4-(5-chlorobenzo[b]thiophen-3-yl)-2,6-dimethyl-1,4-dihydropyridine-3-carboxylate] | < 100 nM |
| CC(=O)C1=C(C)NC(C)=C(C(=O)OCC2CCOCC2)C1c1csc2ccc(F)cc12 (centres unmarked) [Example C44, (Tetrahydro-2H-pyran-4-yl)methyl 5-acetyl-4-(5-fluorobenzo[b]thiophen-3-yl)-2,6-dimethyl-1,4-dihydropyridine-3-carboxylate] | 100 to 1000 nM |
| CC(=O)C1=C(C)NC(C)=C(C(=O)OCc2ccncc2)C1c1csc2ccc(F)cc12 (centres unmarked) [Example C46, Pyridin-4-ylmethyl 5-acetyl-4-(5-fluorobenzo[b]thiophen-3-yl)-2,6-dimethyl-1,4-dihydropyridine-3-carboxylate] | 100 to 1000 nM |
| CC(=O)C1=C(C)NC(C)=C(C(=O)OCc2cccnc2)C1c1csc2ccccc12 (centres unmarked) [Example C48, Pyridin-3-ylmethyl 5-acetyl-4-(benzo[b]thiophen-3-yl)-2,6-dimethyl-1,4-dihydropyridine-3-carboxylate] | 100 to 1000 nM |
| CC(=O)C1=C(C)NC(C)=C(C(=O)OCc2cccnc2)C1c1csc2c(Br)cccc12 (centres unmarked) [Example C58, Pyridin-3-ylmethyl 5-acetyl-4-(7-bromobenzo[b]thiophen-3-yl)-2,6-dimethyl-1,4-dihydropyridine-3-carboxylate] | 100 to 1000 nM |
| CC(=O)C1=C(C)NC(C)=C(C(=O)OCc2ccc(Br)cc2)C1c1csc2ncccc12 (centres unmarked) [Example C65, 4-bromobenzyl 5-acetyl-2,6-dimethyl-4-(thieno[2,3-b]pyridin-3-yl)-1,4-dihydropyridine-3-carboxylate] | 100 to 1000 nM |
| CC(=O)C1=C(C)NC(C)=C(C(=O)OCc2cccc(Br)c2)C1c1csc2ncccc12 (centres unmarked) [Example C66, 3-bromobenzyl 5-acetyl-2,6-dimethyl-4-(thieno[2,3-b]pyridin-3-yl)-1,4-dihydropyridine-3-carboxylate] | < 100 nM |
| CC(=O)C1=C(C)NC(C)=C(C(=O)OCc2ccccc2Br)C1c1csc2ncccc12 (centres unmarked) [Example C67, 2-bromobenzyl 5-acetyl-2,6-dimethyl-4-(thieno[2,3-b]pyridin-3-yl)-1,4-dihydropyridine-3-carboxylate] | < 100 nM |
| CC(=O)C1=C(C)NC(C)=C(C(=O)OC(C)(C)c2ccccc2)C1c1csc2ncccc12 (centres unmarked) [Example C71, 2-phenylpropan-2-yl 5-acetyl-2,6-dimethyl-4-(thieno[2,3-b]pyridin-3-yl)-1,4-dihydropyridine-3-carboxylate] | ≥ 1000 nM |
| CC(=O)C1=C(C)NC(C)=C(C(=O)OCc2cccc(C#N)c2)C1c1csc2ncccc12 (centres unmarked) [Example C72, 3-Cyanobenzyl 5-acetyl-2,6-dimethyl-4-(thieno[2,3-b]pyridin-3-yl)-1,4-dihydropyridine-3-carboxylate] | ≥ 1000 nM |
| CC(=O)C1=C(C)NC(C)=C(C(=O)OCc2ccc(C#N)cc2)C1c1csc2ncccc12 (centres unmarked) [Example C73, 4-cyanobenzyl 5-acetyl-2,6-dimethyl-4-(thieno[2,3-b]pyridin-3-yl)-1,4-dihydropyridine-3-carboxylate] | ≥ 1000 nM |
| COC(=O)C1=C(C=O)NC(C2CC2)=C(C(=O)OC)C1c1csc2c(C#N)cccc12 (centres unmarked) [Example C117, Dimethyl 4-(7-cyanobenzo[b]thiophen-3-yl)-2-cyclopropyl-6-formyl-1,4-dihydropyridine-3,5-dicarboxylate] | 100 to 1000 nM |
| COC(=O)C1=C(CO)NC(C2CC2)=C(C(=O)OC)C1c1csc2c(C#N)cccc12 (centres unmarked) [Example C118, Dimethyl 4-(7-cyanobenzo[b]thiophen-3-yl)-2-cyclopropyl-6-(hydroxymethyl)-1,4-dihydropyridine-3,5-dicarboxylate] | 100 to 1000 nM |
| COC(=O)C1=C(C)NC(C=O)=C(C(=O)OC)C1c1csc2c(C#N)cccc12 (centres unmarked) [Example C119, Dimethyl 4-(7-cyanobenzo[b]thiophen-3-yl)-2-formyl-6-methyl-1,4-dihydropyridine-3,5-dicarboxylate] | 100 to 1000 nM |
| CC1=C(C#N)C(c2csc3c(C#N)cccc23)C(C(=O)OCC2CC2)=C(N)N1 (centres unmarked) [Example D24, cyclopropylmethyl 2-amino-5-cyano-4-(7-cyanobenzo[b]thiophen-3-yl)-6-methyl-1,4-dihydropyridine-3-carboxylate] | 100 to 1000 nM |
| COC(=O)C1=C(C)NC(N)=C(C(=O)OC2CCCC2)C1c1csc2c(C#N)cccc12 (centres unmarked) [Example D27, 3-Cyclopentyl 5-methyl 2-amino-4-(7-cyanobenzo[b]thiophen-3-yl)-6-methyl-1,4-dihydropyridine-3,5-dicarboxylate] | 100 to 1000 nM |
| CC(=O)C1=C(C)NC(N)=C(C(=O)OCC2CCCCC2)C1c1csc2c(C#N)cccc12 (centres unmarked) [Example D30, Cyclohexylmethyl 5-acetyl-2-amino-4-(7-cyanobenzo[b]thiophen-3-yl)-6-methyl-1,4-dihydropyridine-3-carboxylate] | 100 to 1000 nM |
| CC1=C(C(=O)C2CC2)C(c2csc3c(C#N)cccc23)C(C(=O)OCC2CC2)=C(N)N1 (centres unmarked) [Example D31, Cyclopropylmethyl 2-amino-4-(7-cyanobenzo[b]thiophen-3-yl)-5-(cyclopropanecarbonyl)-6-methyl-1,4-dihydropyridine-3-carboxylate] | 100 to 1000 nM |
| CC(=O)C1=C(C)NC(N)=C(C(=O)OCc2cccc(F)c2)C1c1csc2c(C#N)cccc12 (centres unmarked) [Example D32, 3-Fluorobenzyl 5-acetyl-2-amino-4-(7-cyanobenzo[b]thiophen-3-yl)-6-methyl-1,4-dihydropyridine-3-carboxylate] | 100 to 1000 nM |
| CC1=C(C(=O)OC2CC2)C(c2csc3c(C#N)cccc23)C(C(=O)OCC2CC2)=C(N)N1 (centres unmarked) [Example D37, 5-Cyclopropyl 3-(cyclopropylmethyl) 2-amino-4-(7-cyanobenzo[b]thiophen-3-yl)-6-methyl-1,4-dihydropyridine-3,5-dicarboxylate] | 100 to 1000 nM |
| COC(=O)C1=C(C)NC(N)=C(C(=O)OCC2CC2)C1c1csc2c(C#N)cc(F)cc12 (centres unmarked) [Example D39, 3-(Cyclopropylmethyl) 5-methyl 2-amino-4-(7-cyano-5-fluorobenzo[b]thiophen-3-yl)-6-methyl-1,4-dihydropyridine-3,5-dicarboxylate] | 100 to 1000 nM |
| COC(=O)C1=C(C)NC(N)=C(C(=O)OC(C)C)C1c1csc2c(C#N)cccc12 (centres unmarked) [Example D41, 3-Isopropyl 5-methyl 2-amino-4-(7-cyanobenzo[b]thiophen-3-yl)-6-methyl-1,4-dihydropyridine-3,5-dicarboxylate] | < 100 nM |
| COC(=O)C1=C(C)NC(N)=C(C(=O)OCC(C)(C)C)C1c1csc2c(C#N)cccc12 (centres unmarked) [Example D43, 5-Methyl 3-neopentyl 2-amino-4-(7-cyanobenzo[b]thiophen-3-yl)-6-methyl-1,4-dihydropyridine-3,5-dicarboxylate] | ≥ 1000 nM |
| CC1=C(C(=O)OCC2CC2)C(c2csc3c(C#N)cccc23)C(C(=O)OCC2CC2)=C(N)N1 (centres unmarked) [Example D46, Bis(cyclopropylmethyl) 2-amino-4-(7-cyanobenzo[b]thiophen-3-yl)-6-methyl-1,4-dihydropyridine-3,5-dicarboxylate] | ≥ 1000 nM |
| C#CCOC(=O)C1=C(C)NC(N)=C(C(=O)OCC2CC2)C1c1csc2c(C#N)cccc12 (centres unmarked) [Example D47, 3-(Cyclopropylmethyl) 5-(prop-2-yn-1-yl) 2-amino-4-(7-cyanobenzo[b]thiophen-3-yl)-6-methyl-1,4-dihydropyridine-3,5-dicarboxylate] | ≥ 1000 nM |
